Assay results published in patent US8283465B2, “Triazolopyridine compound, and action thereof as prolyl hydroxylase inhibitor or erythropoietin production-inducing agent” (Japan Tobacco Inc., priority 2009, dated 2012).
Structures can show the parent of a compound that is named as a salt.

Experiments:
human PHD2 = molecular target: T1, human PHD2 (Homo sapiens, UniProt Q9GZT9); test: Measurement of human PHD inhibitory activity (TR-FRET, hydroxylation of HIF-1α partial peptide); format: biochemical; conditions: human PHD2 enzyme 1 nM, 25° C. 30 min, values consisting solely of numbers; read-out: IC50 (μM) in vitro, human PHD inhibitory activity
T1 construct: made in house; host or cells: Sf9 insect cells (baculovirus, pVL1393 vector)
Experimental: Human PHD2 was expressed in insect cell (Sf9 cell). […] The vector and baculovirus were cotransfected into Sf9, and human PHD2 expression baculovirus was isolated in Sf9. By using the virus, human PHD2-expressed cell was prepared. […] The cell lysate was flowed into a column filled with ANTI-FLAG M2 Affinity Gel Freezer Safe (SIGMA), washed, and the N-terminal FLAG-tag-added human PHD2 was eluted and collected.
VBC complex (VHL/Elongin B/Elongin C) was expressed in Escherichia coli (BL21(DE3)). […] After these expression vectors were transfected into Escherichia coli (BL21(DE3)), Escherichia coli was cultured at 37° C. in the medium containing IPTG. The collected Escherichia coli was disrupted by sonication and flowed into a column filled with Ni-NTA superflow (QIAGEN), washed, and the product was eluted and collected. The eluate was flowed into a column filled with Glutathione Sepharose 4B, washed, and the product was eluted and collected. […]
As for human PHD2 enzyme activity, hydroxylation of proline residue contained in the 19 residues of the partial peptide based on the sequence of HIF-1α as a substrate was measured by TR-FRET (Time-Resolved Fluorescence Resonance Energy Transfer) method.
A test compound and a substrate solution were added to a 96-well plate. The reaction was started by addition of a human PHD2 enzyme solution (final concentration 1 nM) to the reaction system. After incubation at 25° C. for 30 min, a stop solution containing EDTA was added, and a VBC complex solution containing europium (Eu) and Xlent was added, and the amount of hydroxylated proline residue was quantified by time-resolved fluorescence spectroscopy. The time-resolved fluorescence in each well was measured, and the human PHD inhibitory activity (%) of the test compound was calculated based on the values of enzyme non-addition well and test compound non-addition well.

[1] = test system: human EPO production, Hep3B cells; test: Human EPO production activity in Hep3B cells (EPO-ELISA of culture supernatant); format: cell-based; conditions: for EC50: Homo sapiens, 24 hr incubation, values consisting solely of numbers, read-out: EC50 (μM) in vitro, human EPO production activity; for production activity (%) at 30 μM in vitro, human EPO: 24 hr, values containing %, relative to maximum production
Experimental: The activity of the test compound on human EPO production was measured using Hep3B (AMC) established from human liver-derived cell line.
Hep3B cells were cultured in Eagle-MEM medium containing 10% fetal bovine serum, and the test compound was diluted with dimethyl sulfoxide (DMSO).
Hep3B cells were cultured in a 96-well plate, and a test compound was added at each concentration 24 hr later. After incubation at 37° C. for 24 hr, the culture supernatant was collected. The concentration of human EPO produced in the culture supernatant was measured using a human EPO-ELISA kit (manufactured by StemCell Technologies, 01630) according to the manufacturer's explanation, and the human EPO production activity (%) of the test compound was calculated based on the maximum value of production under the above conditions and the value without addition of the test compound. […] In these Tables, the values consisting solely of numbers show EC50 (μM) and those containing % show human EPO production activity (%) at […].

T1 sequence (Q9GZT9 whole entry): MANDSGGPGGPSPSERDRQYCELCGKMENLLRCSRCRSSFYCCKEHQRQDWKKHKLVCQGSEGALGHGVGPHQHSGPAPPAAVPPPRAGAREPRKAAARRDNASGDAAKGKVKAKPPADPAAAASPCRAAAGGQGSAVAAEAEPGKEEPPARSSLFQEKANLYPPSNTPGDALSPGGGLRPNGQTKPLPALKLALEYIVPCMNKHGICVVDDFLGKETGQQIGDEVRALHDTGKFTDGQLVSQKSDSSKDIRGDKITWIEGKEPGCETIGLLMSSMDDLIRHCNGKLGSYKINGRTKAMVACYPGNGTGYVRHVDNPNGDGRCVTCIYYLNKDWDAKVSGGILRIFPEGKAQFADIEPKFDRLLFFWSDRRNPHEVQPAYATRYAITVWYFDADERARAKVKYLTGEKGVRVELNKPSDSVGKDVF

IC50 (human PHD2) [µM]	EC50 [1] [µM]	SMILES	production activity (%) at 30 μM in vitro, human EPO [1] [%]
0.8	12.1	O=C(O)CNC(=O)c1c(O)cc(-c2cc(F)cc(C(F)(F)F)c2)n2ncnc12 [Example 31, {[5-(3-fluoro-5-trifluoromethyl-phenyl)-7-hydroxy[1,2,4]triazolo[1,5-a]pyridine-8-carbonyl]amino}acetic acid hydrochloride]	–
0.38	15.6	O=C(O)CNC(=O)c1c(O)cc(-c2ccc(F)cc2)n2ncnc12 [Example 32, {[5-(4-fluorophenyl)-7-hydroxy[1,2,4]triazolo[1,5-a]pyridine-8-carbonyl]ammino}acetic acid hydrochloride]	–
0.46	10.1	O=C(O)CNC(=O)c1c(O)cc(-c2cccc(C(F)(F)F)c2)n2ncnc12 [Example 33, {[7-hydroxy-5-(3-trifluoromethyl-phhenyl)[1,2,4]triazolo[1,5-a]pyridine-8-carbonyl]ammino}acetic acid hydrochloride]	–
0.43	15	O=C(O)CNC(=O)c1c(O)cc(-c2cc(C(F)(F)F)ccc2F)n2ncnc12 [Example 34, {[5-(2-fluoro-5-trifluoromethyl-phenyl)-7-hydroxy[1,2,4]triazolo[1,5-a]pyridine-8-carbonyl]amino}acetic acid hydrochloride]	–
0.88	–	CC(C)c1cc(O)c(C(=O)NCC(=O)O)c2ncnn12 [Example 35, [(7-hydroxy-5-isopropyl[1,2,4]triazolo[1,5-a]pyridine-8-carbonyl)amino]acetic acid hydrochloride]	43
0.72	10.5	O=C(O)CNC(=O)c1c(O)cc(-c2cc(Cl)cc(C(F)(F)F)c2)n2ncnc12 [Example 36, {[5-(3-chloro-5-trifluoromethyl-phenyl)-7-hydroxy[1,2,4]triazolo[1,5-a]pyridine-8-carbonyl]amino}acetic acid hydrochloride]	–
0.2	–	N#Cc1cccc(-c2cc(O)c(C(=O)NCC(=O)O)c3ncnn23)c1 [Example 37, {[5-(3-cyanophenyl)-7-hydroxy[1,2,4]triazolo[1,5-a]pyridine-8-carbonyl]amino}acetic acid hydrochloride]	11
0.59	8.7	O=C(O)CNC(=O)c1c(O)cc(CCc2ccc(C3CC3)cc2)n2ncnc12 [Example 38, ({5-[2-(4-cyclopropyl-phenyl)ethyl]-7-hydroxy[1,2,4]trizazolo[1,5-a]pyridine-8-carbonyl}amino)acetic acid hydrochloride]	–
1.25	22.3	CC(C)(C)Cc1cc(O)c(C(=O)NCC(=O)O)c2ncnn12 [Example 39, {[5-(2,2-dimethylpropyl)-7-hydroxy[1,2,4]triazolo[1,5-a]pyridine-8-carbonyl]amino}acetic acid hydrochloride]	–
0.87	17.7	CCC(CC)c1cc(O)c(C(=O)NCC(=O)O)c2ncnn12 [Example 40, {[5-(1-ethylpropyl)-7-hydroxy[1,2,4]triazolo[1,5-a]pyridine-8-carbonyl]amino}acetic acid hydrochloride]	–
0.26	9.1	O=C(O)CNC(=O)c1c(O)cc(-c2cc(F)cc(Cl)c2)n2ncnc12 [Example 41, {[5-(3-chloro-5-fluorophenyl)-7-hydroxy[1,2,4]triazolo[1,5-a]pyridine-8-carbonyl]amino}acetic acid hydrochloride]	–
0.24	14.2	O=C(O)CNC(=O)c1c(O)cc(-c2cccc(F)c2)n2ncnc12 [Example 42, {[5-(3-fluorophenyl)-7-hydroxy[1,2,4]triazolo[1,5-a]pyridine-8-carbonyl]amino}acetic acid hydrochloride]	–
0.93	23.6	CC(C)Cc1cc(O)c(C(=O)NCC(=O)O)c2ncnn12 [Example 43, [(7-hydroxy-5-isobutyl[1,2,4]triazolo[1,5-a]pyridine-8-carbonyl)amino]acetic acid]	–
0.92	9.9	CCC(CC)Cc1cc(O)c(C(=O)NCC(=O)O)c2ncnn12 [Example 45, {[5-(2-ethylbutyl)-7-hydroxy[1,2,4]triazolo[1,5-a]pyridine-8-carbonyl]amino}acetic acid hydrochloride]	–
0.29	4.8	O=C(O)CNC(=O)c1c(O)cc(-c2cc(Cl)cc(Cl)c2)n2ncnc12 [Example 46, {[5-(3,5-dichlorophenyl)-7-hydroxy[1,2,4]triazolo[1,5-a]pyridine-8-carbonyl]amino}acetic acid hydrochloride]	–
0.56	12	O=C(O)CNC(=O)c1c(O)cc(CCC2CC2)n2ncnc12 [Example 47, {[5-(2-cyclopropylethyl)-7-hydroxy[1,2,4]triazolo[1,5-a]pyridine-8-carbonyl]amino}acetic acid hydrochloride]	–
0.59	4.5	CCC(C)(C)CCc1cc(O)c(C(=O)NCC(=O)O)c2ncnn12 [Example 48, hydrochloride]	–
0.24	11.7	O=C(O)CNC(=O)c1c(O)cc(-c2cc(F)c(F)c(F)c2)n2ncnc12 [Example 49, {[7-hydroxy-5-(3,4,5-trifluorophenyl)[1,2,4]triazolo[1,5-a]pyridine-8-carbonyl]amino}acetic acid hydrochloride]	–
0.18	5.6	O=C(O)CNC(=O)c1c(O)cc(-c2ccc(Cl)cc2)n2ncnc12 [Example 50, {[5-(4-chlorophenyl)-7-hydroxy[1,2,4]triazolo[1,5-a]pyridine-8-carbonyl]amino}acetic acid hydrochloride]	–
0.26	9.1	Cc1cccc(-c2cc(O)c(C(=O)NCC(=O)O)c3ncnn23)c1 [Example 51, [(7-hydroxy-5-(m-tolyl)[1,2,4]triazolo[1,5-a]pyridine-8-carbonyl)amino] acetic acid hydrochloride]	–
0.89	10.4	O=C(O)CNC(=O)c1c(O)cc(-c2cc(F)cc(C3CC3)c2)n2ncnc12 [Example 52, {[5-(3-cyclopropyl-5-fluorophenyl)-7-hydroxy[1,2,4]triazolo[1,5-a]pyridine-8-carbonyl]amino} acetic acid hydrochloride]	–
0.5	8.9	O=C(O)CNC(=O)c1c(O)cc(CC2CCC2)n2ncnc12 [Example 53, [(5-cyclobutylmethyl-7-hydroxy[1,2,4]triazolo[1,5-a]pyridine-8-carbonyl)amino] acetic acid hydrochloride]	–
0.44	4.5	O=C(O)CNC(=O)c1c(O)cc(CCC2CCC2)n2ncnc12 [Example 54, {[5-(2-cyclobutylethyl)-7-hydroxy[1,2,4]triazolo[1,5-a]pyridine-8-carbonyl]amino} acetic acid hydrochloride]	–
0.23	8.9	O=C(O)CNC(=O)c1c(O)cc(-c2cccc(C(F)(F)F)c2F)n2ncnc12 [Example 55, {[5-(2-fluoro-3-trifluoromethyl-phenyl)-7-hydroxy[1,2,4]triazolo[1,5-a]pyridine-8-carbonyl]amino} acetic acid hydrochloride]	–
0.19	8.4	O=C(O)CNC(=O)c1c(O)cc(-c2cccc(Cl)c2F)n2ncnc12 [Example 56, {[5-(3-chloro-2-fluorophenyl)-7-hydroxy[1,2,4]triazolo[1,5-a]pyridine-8-carbonyl]amino} acetic acid hydrochloride]	–
0.2	4.7	O=C(O)CNC(=O)c1c(O)cc(-c2ccc(C(F)(F)F)cc2)n2ncnc12 [Example 57, {[7-hydroxy-5-(4-trifluoromethyl-phenyl)[1,2,4]triazolo[1,5-a]pyridine-8-carbonyl]amino} acetic acid hydrochloride]	–
0.55	4.7	O=C(O)CNC(=O)c1c(O)cc(C2CCCCCC2)n2ncnc12 [Example 58, [(5-cycloheptyl-7-hydroxy[1,2,4]triazolo[1,5-a]pyridine-8-carbonyl)amino] acetic acid hydrochloride]	–
